Results published in patent publication US7365053B2, “Selective N-acylation of A82846 glygopeptides analogs” (priority 2000, dated 2008).
Values after ≈ are worked out from the molar mass of the structure shown.

Legend:
[1] = tested on: Enterococcus faecalis 2041; test: Broth micro-dilution MIC; format: cell-based; conditions: BHI medium
Experimental: (§1) The compounds of the present invention have in vitro activity against Gram-positive pathogenic bacteria. The antibacterial activity of the present compounds is illustrated in Tables III and IV. The minimal inhibitory concentrations (MICs) were determined using a standard broth micro-dilution assay. Table IV presents a comparison of the activity of illustrative compounds against representative vancomycin-resistant and vancomycin-sensitive enterococci (Enterococcus faecium and Enterococcus faecalis), mean geometric MIC (mcg/mL), as determined by the standard broth microdilution assay.
(§2) Assays for antimicrobial activity were performed using microbroth susceptibility testing methods as described by the NCCLS (National Committee for Clinical Laboratories Standards. 1990. Approved standard M7-A2. Methods for dilution antimicrobial susceptibility testing for bacteria that grow aerobically, 2 ed., Villanova Pa.). Brain-heart infusion medium (BHI) was used for testing of enterococci, and NCCLS recommendations for medium were followed for other bacteria.

[2] = tested on: Enterococcus gallinarum 245; test: Broth micro-dilution MIC; format: cell-based; conditions: BHI medium
Experimental: as §1, §2

[3] = tested on: Staphylococcus epidermidis 270; test: Broth micro-dilution MIC; format: cell-based
Experimental: as §1, §2

[4] = tested on: Staphylococcus aureus SA1199A; test: Broth micro-dilution MIC; format: cell-based
Experimental: as §1, §2

[5] = tested on: Streptococcus pneumoniae P1; test: Broth micro-dilution MIC; format: cell-based
Experimental: as §1, §2

[6] = tested on: Enterococcus faecium 180-1; test: Broth micro-dilution MIC; format: cell-based; conditions: BHI medium
Experimental: as §1, §2

[7] = tested on: Staphylococcus aureus X778; test: Broth micro-dilution MIC; format: cell-based
Experimental: as §1, §2

[8] = tested on: Staphylococcus aureus X400; test: Broth micro-dilution MIC; format: cell-based
Experimental: as §1, §2

[9] = tested on: Staphylococcus aureus SA1199B; test: Broth micro-dilution MIC; format: cell-based
Experimental: as §1, §2

[10] = tested on: Staphylococcus aureus 489; test: Broth micro-dilution MIC; format: cell-based
Experimental: as §1, §2

[11] = tested on: Staphylococcus haemolyticus 105; test: Broth micro-dilution MIC; format: cell-based
Experimental: as §1, §2

[12] = tested on: Staphylococcus aureus 491; test: Broth micro-dilution MIC; format: cell-based
Experimental: as §1, §2

Escherichia coli EC14 = test: Broth micro-dilution MIC; format: cell-based
Experimental: as §1, §2

[13] = tested on: Streptococcus pyogenes C203; test: Broth micro-dilution MIC; format: cell-based
Experimental: as §1, §2

[14] = tested on: Staphylococcus aureus 446; test: Broth micro-dilution MIC; format: cell-based
Experimental: as §1, §2

[15] = tested on: Staphylococcus aureus SA1199; test: Broth micro-dilution MIC; format: cell-based
Experimental: as §1, §2

[16] = tested on: Staphylococcus aureus 447; test: Broth micro-dilution MIC; format: cell-based
Experimental: as §1, §2

[17] = tested on: Enterococcus faecalis 276; test: Broth micro-dilution MIC; format: cell-based; conditions: BHI medium
Experimental: as §1, §2

[18] = tested on: Staphylococcus aureus S13E; test: Broth micro-dilution MIC; format: cell-based
Experimental: as §1, §2

Enterococcus faecium 180 = test: Broth micro-dilution MIC; format: cell-based; conditions: BHI medium
Experimental: as §1, §2

[19] = tested on: Haemophilus influenzae RD; test: Broth micro-dilution MIC; format: cell-based
Experimental: as §1, §2

[20] = tested on: Staphylococcus haemolyticus 415; test: Broth micro-dilution MIC; format: cell-based
Experimental: as §1, §2

[21] = tested on: vancomycin-sensitive enterococci; test: In vitro activity against enterococci, broth microdilution; format: cell-based, Enterococcus faecium and Enterococcus faecalis; conditions: representative vancomycin-sensitive enterococci (E. faecium and E. faecalis); BHI medium
Experimental: as §1, §2

[22] = tested on: vancomycin-resistant enterococci; test: as above; format: cell-based, Enterococcus faecium and Enterococcus faecalis; conditions: representative vancomycin-resistant enterococci (E. faecium and E. faecalis); BHI medium
Experimental: as §1, §2

## CNC(CC(C)C)C(=O)NC1C(=O)NC(CC(N)=O)C(=O)NC2C(=O)NC3C(=O)NC(C(=O)NC(C(=O)O)c4cc(O)cc(O)c4-c4cc3ccc4O)C(OC3CC(C)(N)C(O)C(C)O3)c3ccc(c(Cl)c3)Oc3cc2cc(c3OC2OC(CO)C(O)C(O)C2OC2CC(C)(NC(=O)c3ccc(-c4ccccc4)cc3)C(O)C(C)O2)Oc2ccc(cc2Cl)C1O (stereo not drawn) [Example 1]
[1]
  MIC: 0.125 µg/mL (≈ 0.0705 µM)
[2]
  MIC: 8 µg/mL (≈ 4.51 µM)
[3]
  MIC: 16 µg/mL (≈ 9.03 µM)
[4]
  MIC: 0.125 µg/mL (≈ 0.0705 µM)
[5]
  MIC: ≦.06 μg/ml
[6]
  MIC: ≦.06 μg/ml
[7]
  MIC: 1 µg/mL (≈ 0.564 µM)
[8]
  MIC: 1 µg/mL (≈ 0.564 µM)
[9]
  MIC: 2 µg/mL (≈ 1.13 µM)
[10]
  MIC: 0.5 µg/mL (≈ 0.282 µM)
[11]
  MIC: 1 µg/mL (≈ 0.564 µM)
[12]
  MIC: 0.25 µg/mL (≈ 0.141 µM)
Escherichia coli EC14
  MIC: >64 µg/mL
[13]
  MIC: ≦.06 μg/ml
[14]
  MIC: 2 µg/mL (≈ 1.13 µM)
[15]
  MIC: 2 µg/mL (≈ 1.13 µM)
[16]
  MIC: 16 µg/mL (≈ 9.03 µM)
[17]
  MIC: 0.5 µg/mL (≈ 0.282 µM)
[18]
  MIC: 2 µg/mL (≈ 1.13 µM)
Enterococcus faecium 180
  MIC: 0.25 µg/mL (≈ 0.141 µM)
[19]
  MIC: >64 µg/mL
[20]
  MIC: 8 µg/mL (≈ 4.51 µM)
[21]
  Mean geometric MIC, Vancomycin Sensitive Strains: 0.38 µg/mL
[22]
  Mean geometric MIC, Vancomycin Resistant Strains: 11.3 µg/mL

## CNC(CC(C)C)C(=O)NC1C(=O)NC(CC(N)=O)C(=O)NC2C(=O)NC3C(=O)NC(C(=O)NC(C(=O)O)c4cc(O)cc(O)c4-c4cc3ccc4O)C(OC3CC(C)(NC(=O)c4ccc(-c5ccccc5)cc4)C(O)C(C)O3)c3ccc(c(Cl)c3)Oc3cc2cc(c3OC2OC(CO)C(O)C(O)C2OC2CC(C)(N)C(O)C(C)O2)Oc2ccc(cc2Cl)C1O (stereo not drawn) [Example 2]
[1]
  MIC: 1 µg/mL (≈ 0.564 µM)
[2]
  MIC: >64 µg/mL
[3]
  MIC: 32 µg/mL (≈ 18.1 µM)
[4]
  MIC: 1 µg/mL (≈ 0.564 µM)
[5]
  MIC: ≦.06 μg/ml
[6]
  MIC: 1 µg/mL (≈ 0.564 µM)
[7]
  MIC: 2 µg/mL (≈ 1.13 µM)
[8]
  MIC: 2 µg/mL (≈ 1.13 µM)
[9]
  MIC: 2 µg/mL (≈ 1.13 µM)
[10]
  MIC: 0.5 µg/mL (≈ 0.282 µM)
[11]
  MIC: 2 µg/mL (≈ 1.13 µM)
[12]
  MIC: 1 µg/mL (≈ 0.564 µM)
Escherichia coli EC14
  MIC: >64 µg/mL
[13]
  MIC: ≦.06 μg/ml
[14]
  MIC: 8 µg/mL (≈ 4.51 µM)
[15]
  MIC: 4 µg/mL (≈ 2.26 µM)
[16]
  MIC: 32 µg/mL (≈ 18.1 µM)
[17]
  MIC: 1 µg/mL (≈ 0.564 µM)
[18]
  MIC: 4 µg/mL (≈ 2.26 µM)
Enterococcus faecium 180
  MIC: 32 µg/mL (≈ 18.1 µM)
[19]
  MIC: >64 µg/mL
[20]
  MIC: >64 µg/mL
[21]
  Mean geometric MIC, Vancomycin Sensitive Strains: 0.38 µg/mL
[22]
  Mean geometric MIC, Vancomycin Resistant Strains: >25 µg/mL

## CC(C)CC(C(=O)NC1C(=O)NC(CC(N)=O)C(=O)NC2C(=O)NC3C(=O)NC(C(=O)NC(C(=O)O)c4cc(O)cc(O)c4-c4cc3ccc4O)C(OC3CC(C)(N)C(O)C(C)O3)c3ccc(c(Cl)c3)Oc3cc2cc(c3OC2OC(CO)C(O)C(O)C2OC2CC(C)(N)C(O)C(C)O2)Oc2ccc(cc2Cl)C1O)N(C)C(=O)c1ccc(-c2ccccc2)cc1 (stereo not drawn) [Example 3]
[1]
  MIC: ≦.06 μg/ml
[2]
  MIC: 2 µg/mL (≈ 1.13 µM)
[3]
  MIC: 2 µg/mL (≈ 1.13 µM)
[4]
  MIC: 1 µg/mL (≈ 0.564 µM)
[5]
  MIC: ≦.06 μg/ml
[6]
  MIC: ≦.06 μg/ml
[7]
  MIC: 1 µg/mL (≈ 0.564 µM)
[8]
  MIC: 0.5 µg/mL (≈ 0.282 µM)
[9]
  MIC: 2 µg/mL (≈ 1.13 µM)
[10]
  MIC: 0.5 µg/mL (≈ 0.282 µM)
[11]
  MIC: 4 µg/mL (≈ 2.26 µM)
[12]
  MIC: 0.5 µg/mL (≈ 0.282 µM)
Escherichia coli EC14
  MIC: >64 µg/mL
[13]
  MIC: ≦.06 μg/ml
[14]
  MIC: 0.5 µg/mL (≈ 0.282 µM)
[15]
  MIC: 1 µg/mL (≈ 0.564 µM)
[16]
  MIC: 16 µg/mL (≈ 9.03 µM)
[17]
  MIC: 0.125 µg/mL (≈ 0.0705 µM)
[18]
  MIC: 0.25 µg/mL (≈ 0.141 µM)
Enterococcus faecium 180
  MIC: 0.25 µg/mL (≈ 0.141 µM)
[19]
  MIC: >64 µg/mL
[20]
  MIC: 2 µg/mL (≈ 1.13 µM)
[21]
  Mean geometric MIC, Vancomycin Sensitive Strains: 0.19 µg/mL
[22]
  Mean geometric MIC, Vancomycin Resistant Strains: 4 µg/mL
